Experimental data published in PMC4641453 (Science translational medicine, 2015).
Values after ≈ are worked out from the molar mass of the structure shown. Like-named read-outs stand apart in the source and are kept apart here.

Legend:
[1] = tested on: S. pneumoniae isolates; assay type: cell-based; details: Streptococcus pneumoniae
[2] = tested on: S. pneumoniae strain D39x; assay: Mouse intranasal pneumococcal challenge, pneumonia and bacteremia; assay type: in vivo, mice
[3] = tested on: Bacillus subtilis (ATCC 23857); assay: microbe, parasite or virus in culture; assay type: cell-based; details: ATCC23857, read-out: MIC Bs
[4] = tested on: MSSA, Staphylococcus aureus (ATCC 29213); assay: microbe, parasite or virus in culture; assay type: cell-based; details: ATCC29213|MSSA, read-out: MIC MSSA
[5] = rat, in vivo, 10 mg/kg; cited from earlier work
[6] = tested on: Chlamydia trachomatis serovar L2 (strain 434/Bu); assay: Chlamydial susceptibility testing in infected HeLa 229 monolayers; details: up to 100 μg/mL, C. trachomatis-infected monolayers
[7] = tested on: MRSA, Staphylococcus aureus (NRS70); assay: microbe, parasite or virus in culture; assay type: cell-based; details: MRSA|NRS70, read-out: MIC MRSA
[8] = assay type: physicochemical; details: pH 7
[9] = tested on: Streptococcus pyogenes (ATCC 700294); assay: microbe, parasite or virus in culture; assay type: cell-based; details: ATCC700294, read-out: MIC Spy
[10] = tested on: Streptococcus pneumoniae (R6); assay: microbe, parasite or virus in culture; assay type: cell-based; details: read-out: MIC Spn
[11] = tested on: Haemophilus influenzae (ATCC 49247); assay: microbe, parasite or virus in culture; assay type: cell-based; details: ATCC49247, read-out: Zone of inhibition Hi
[12] = tested on: Listeria monocytogenes (NS512); assay: microbe, parasite or virus in culture; assay type: cell-based
[13] = tested on: Streptococcus pneumoniae mutants resistant to compound 1; assay: In vitro generation and MIC testing of compound 1 resistant mutants; assay type: cell-based; details: fifteen compound 1 resistant S. pneumoniae clones (RpsE G27R)
[14] = tested on: Neisseria meningitidis (ATCC 13077); assay: microbe, parasite or virus in culture; assay type: cell-based; details: ATCC13077, read-out: Zone of inhibition Nm
[15] = tested on: Legionella pneumophila (ATCC 33153); assay: microbe, parasite or virus in culture; assay type: cell-based
[16] = tested on: Neisseria gonorrhoeae (ATCC 49226); assay type: cell-based; details: 40 μg of compound on 6 mm disc; range of two experiments
[17] = tested on: Enterococcus faecalis (ATCC 33186); assay: microbe, parasite or virus in culture; assay type: cell-based; details: ATCC33186, read-out: MIC Ef
[18] = mean (% CV); cited from earlier work
[19] = tested on: Moraxella catarrhalis (ATCC 25238); assay: microbe, parasite or virus in culture; assay type: cell-based; details: ATCC25238, read-out: MIC Moraxella catarrhalis
[20] = tested on: S. pneumoniae strain TIGR4; assay: Mouse intranasal pneumococcal challenge, bacteremia and meningitis; assay type: in vivo, mice; details: 5 mg/kg from 18 hours after intranasal challenge
[21] = ATCC700904, read-out: MIC ATCC700904

[H]/N=C(/N)N[C@H]1[C@H](O)[C@@H](O)[C@H](O[C@@H]2O[C@@H](C)[C@](O)(C=O)[C@H]2O[C@@H]2O[C@@H](CO)[C@H](O)[C@@H](O)[C@@H]2NC)[C@@H](N/C(N)=N\[H])[C@@H]1O [Streptomycin]
MIC [1, 21]: > 200 µg/mL | MIC ([1]; read-out: MIC 8249): > 200 µg/mL | MIC ([1]; read-out: MIC A66.1x): 13 µg/mL (≈ 22.4 µM) | MIC ([1]; read-out: MIC BAA-1407): 50 µg/mL (≈ 86 µM) | MIC ([1]; read-out: MIC BHN97x): 13 µg/mL (≈ 22.4 µM) | MIC ([1]; read-out: MIC D39X): 13 µg/mL (≈ 22.4 µM) | MIC ([1]; read-out: MIC Daw7): 25 µg/mL (≈ 43 µM) | MIC ([1]; read-out: MIC Daw8): 25 µg/mL (≈ 43 µM) | MIC ([1]; read-out: MIC Daw9): > 200 µg/mL | MIC ([1]; read-out: MIC Daw62): 25 µg/mL (≈ 43 µM) | MIC ([1]; read-out: MIC Daw64): 25 µg/mL (≈ 43 µM) | MIC ([1]; read-out: MIC OVA2): 13 µg/mL (≈ 22.4 µM) | MIC ([1]; read-out: MIC R6): 13 µg/mL (≈ 22.4 µM) | MIC ([1]; read-out: MIC T4X): 6 µg/mL (≈ 10.3 µM)

CC1(C)S[C@@H]2[C@H](NC(=O)[C@H](N)c3ccccc3)C(=O)N2[C@H]1C(=O)O [ampicillin]
Survival of infected mice, 9 day experiment ([2]; matched doses 2.5 or 5 mg/kg): all survived | Reduction of bacterial titers ([2]; within 48 hours post infection, 2.5 or 5 mg/kg): more than 3 logs

CC1(C)S[C@@H]2[C@H](NC(=O)Cc3ccccc3)C(=O)N2[C@H]1C(=O)O [Penicillin G]
MIC [1, 21]: > 2 µg/mL | MIC ([1]; read-out: MIC 8249): > 2 µg/mL | MIC ([1]; read-out: MIC A66.1x): ≤ 0.2 µg/mL | MIC ([1]; read-out: MIC BAA-1407): 2 µg/mL (≈ 5.98 µM) | MIC ([1]; read-out: MIC BHN97x): ≤ 0.2 µg/mL | MIC ([1]; read-out: MIC D39X): ≤ 0.2 µg/mL | MIC ([1]; read-out: MIC Daw7): 3 µg/mL (≈ 8.97 µM) | MIC ([1]; read-out: MIC Daw8): 3 µg/mL (≈ 8.97 µM) | MIC ([1]; read-out: MIC Daw9): 2 µg/mL (≈ 5.98 µM) | MIC ([1]; read-out: MIC Daw19): 3 µg/mL (≈ 8.97 µM) | MIC ([1]; read-out: MIC Daw26): 3 µg/mL (≈ 8.97 µM) | MIC ([1]; read-out: MIC Daw27): 3 µg/mL (≈ 8.97 µM) | MIC ([1]; read-out: MIC Daw47): 3 µg/mL (≈ 8.97 µM) | MIC ([1]; read-out: MIC Daw62): 3 µg/mL (≈ 8.97 µM) | MIC ([1]; read-out: MIC Daw64): 2 µg/mL (≈ 5.98 µM) | MIC ([1]; read-out: MIC OVA2): ≤ 0.2 µg/mL | MIC ([1]; read-out: MIC R6): ≤ 0.2 µg/mL | MIC ([1]; read-out: MIC T4X): ≤ 0.2 µg/mL

CN[C@@H]1[C@H](O)[C@H](NC)[C@H]2O[C@@]3(O)C(=O)C[C@@H](C)O[C@H]3O[C@@H]2[C@H]1O [Spectinomycin, spectinomycin]
MIC [3]: 12.5 µg/mL (≈ 37.6 µM) | MIC [4]: 100 µg/mL (≈ 301 µM) | IV Pharmacokinetics CL [5]: 0.60 (11.5) L/hr/Kg | IV Pharmacokinetics T1/2 [5]: 0.75 (49.3) hr | IV Pharmacokinetics Vd [5]: 0.76 (45.2) L/Kg | IV Pharmacokinetics fe (fraction excreted unchanged in urine) [5]: 0.55 (27.0) | Reduction of intracellular inclusions [6]: failed to reduce intracellular inclusions | MIC [7]: > 200 µg/mL | Chemical stability (percent of parent over time) [8]: continuously declined over time | MIC [9]: 25 µg/mL (≈ 75.2 µM) | MIC [10]: 12.5 µg/mL (≈ 37.6 µM) | Survival of infected mice ([2]; 5 mg/kg BID subcutaneous from 18 hours post challenge, D39x, n=5): died or were humanely euthanized by 120 hours post challenge | Bioluminescent imaging of infection ([2]; 72 hours post challenge, 5 mg/kg BID): systemic bacterial infection | MIC [1, 21]: 25 µg/mL (≈ 75.2 µM) | MIC ([1]; read-out: MIC 8249): 25 µg/mL (≈ 75.2 µM) | MIC ([1]; read-out: MIC A66.1x): 6 µg/mL (≈ 18.1 µM) | MIC ([1]; read-out: MIC BAA-1407): 13 µg/mL (≈ 39.1 µM) | MIC ([1]; read-out: MIC BHN97x): 6 µg/mL (≈ 18.1 µM) | MIC ([1]; read-out: MIC D39X): 13 µg/mL (≈ 39.1 µM) | MIC ([1]; read-out: MIC Daw7): 25 µg/mL (≈ 75.2 µM) | MIC ([1]; read-out: MIC Daw8): 25 µg/mL (≈ 75.2 µM) | MIC ([1]; read-out: MIC Daw9): 13 µg/mL (≈ 39.1 µM) | MIC ([1]; read-out: MIC Daw19): 25 µg/mL (≈ 75.2 µM) | MIC ([1]; read-out: MIC Daw26): 50 µg/mL (≈ 150 µM) | MIC ([1]; read-out: MIC Daw27): 25 µg/mL (≈ 75.2 µM) | MIC ([1]; read-out: MIC Daw47): 25 µg/mL (≈ 75.2 µM) | MIC ([1]; read-out: MIC Daw62): 25 µg/mL (≈ 75.2 µM) | MIC ([1]; read-out: MIC Daw64): 25 µg/mL (≈ 75.2 µM) | MIC ([1]; read-out: MIC OVA2): 13 µg/mL (≈ 39.1 µM) | MIC ([1]; read-out: MIC R6): 13 µg/mL (≈ 39.1 µM) | MIC ([1]; read-out: MIC T4X): 13 µg/mL (≈ 39.1 µM) | zone of inhibition at 40 µg/disc [11]: 12 mm | MIC ([12]; Listeria monocytogenes, read-out: MIC Lm): 50 µg/mL (≈ 150 µM) | MIC Lm ([12]; NS512, range of two independent experiments): 50 µg/mL (≈ 150 µM) | MIC against resistant clones [13]: weakly susceptible | zone of inhibition at 40 µg/disc [14]: 13 to 15 mm | Zone of inhibition Lp ([15]; 40 μg of compound on 6 mm disc, 48 hours, range of two experiments): completely inactive | zone of inhibition at 40 µg/disc ([15]; Legionella pneumophila, ATCC33153, 48 h, read-out: Zone of inhibition Lp): 0 mm | Zone of inhibition Ng [16]: 10–11.5 mm | MIC [17]: 100 µg/mL (≈ 301 µM) | Microsomal Stability t1/2 [18]: 6.43 (0.13) hr | MIC [19]: 6 µg/mL (≈ 18.1 µM) | Survival of infected mice [20]: did not survive beyond 96 hours

CC[C@H]1OC(=O)[C@H](C)[C@@H](O[C@H]2C[C@@](C)(OC)[C@@H](O)[C@H](C)O2)[C@H](C)[C@@H](O[C@@H]2O[C@H](C)C[C@H](N(C)C)[C@H]2O)[C@](C)(O)C[C@@H](C)C(=O)[C@H](C)[C@@H](O)[C@]1(C)O [Erythromycin]
MIC [1, 21]: 2 µg/mL (≈ 2.73 µM) | MIC ([1]; read-out: MIC 8249): > 2 µg/mL | MIC ([1]; read-out: MIC BAA-1407): 50 µg/mL (≈ 68.1 µM) | MIC ([1]; read-out: MIC Daw7): ≤ 0.2 µg/mL | MIC ([1]; read-out: MIC Daw8): ≤ 0.2 µg/mL | MIC ([1]; read-out: MIC Daw9): 2 µg/mL (≈ 2.73 µM) | MIC ([1]; read-out: MIC Daw19): 1 µg/mL (≈ 1.36 µM) | MIC ([1]; read-out: MIC Daw26): 0.1 µg/mL (≈ 0.136 µM) | MIC ([1]; read-out: MIC Daw27): 1 µg/mL (≈ 1.36 µM) | MIC ([1]; read-out: MIC Daw47): 0.03 µg/mL (≈ 0.0409 µM) | MIC ([1]; read-out: MIC Daw62): ≤ 0.2 µg/mL | MIC ([1]; read-out: MIC Daw64): ≤ 0.2 µg/mL | MIC ([1]; read-out: MIC OVA2): 1 µg/mL (≈ 1.36 µM) | MIC ([1]; read-out: MIC R6): ≤ 0.2 µg/mL

CO/N=C(\C(=O)N[C@@H]1C(=O)N2C(C(=O)O)=C(COC(C)=O)CS[C@H]12)c1csc(N)n1 [Cefotaxime]
MIC [1, 21]: 0.2 µg/mL (≈ 0.439 µM) | MIC ([1]; read-out: MIC 8249): 3 µg/mL (≈ 6.59 µM) | MIC ([1]; read-out: MIC Daw19): 1 µg/mL (≈ 2.2 µM) | MIC ([1]; read-out: MIC Daw26): 3 µg/mL (≈ 6.59 µM) | MIC ([1]; read-out: MIC Daw47): 3 µg/mL (≈ 6.59 µM)
